In patent publication US20090098072A1, “ANTIOXIDANTS” (priority 2006, published 2009):

Test: Photoconversion test (absorption at 300 nm after solar simulator irradiation)
Format: physicochemical
Procedure: A 4% solution of the substance in isopropyl myristate is prepared. In each case, 40 μl of the solution are applied to the roughened surface of 2 acrylic glass plates (7.2×2.5 cm). One plate is subsequently irradiated in a solar simulator (Atlas CPS+) for 1 h 50 min with cooling. The sample is subsequently transferred into a 50 ml measuring cylinder and covered with 40 ml of isopropanol for extraction in the ultrasound bath. The sample volume is subsequently made up to precisely 50 ml, and the absorption is measured at 300 nm. An unirradiated batch treated analogously serves as comparison. The absorption can be increased by 22% from 0.094 (dark batch) to 0.115 by the irradiation step.

absorption at 300 nm, unirradiated (dark batch) (4% solution in isopropyl myristate, 40 μl on acrylic glass plate, extracted with isopropanol to 50 ml, not irradiated): 0.094 | absorption at 300 nm after irradiation (4% solution in isopropyl myristate, 40 μl on acrylic glass plate, solar simulator (Atlas CPS+) 1 h 50 min, extracted with isopropanol to 50 ml): 0.115 | increase of absorption at 300 nm by the irradiation step (irradiated 1 h 50 min vs dark batch): 22%
SMILES: Cc1ccc(CC2C(=O)C3(C)CCC2C3(C)C)cc1 (stereo not drawn) [Example 1, 1,7,7-trimethyl-3-(4-methylbenzyl)-bicyclo-[2.2.1]heptan-2-one]
